Patent US20090306050A1, “TREATMENT AND PREVENTION OF DEPRESSION WITH PAIN, DEPRESSION SECONDARY TO PAIN, AND OF NEUROPATHIC PAIN” (priority 2006, published 2009)

Columns and labels:
[1] = fatal poisoning/overdose, Scotland, England and Wales; cited from earlier work
ECG interval = settings: rats infused with the antidepressant; cited from earlier work
NA and 5HT reuptake = assay: NA versus 5HT reuptake selectivity from comparative Ki's (Bolden-Watson and Richelson); type: biochemical
Description: There are a number of ways in which the ratio of NA to 5HT reuptake in antidepressant molecules may be measured. The selectivity a drug for various receptors may be compared by use of comparative Ki's and not comparative IC 50 values. (Bolden-Watson, C and Richelson, E., Life Sci, (52), 1993, 1023-1029), which is hereby incorporated by reference.

D2 receptor = D2 receptor (Homo sapiens, UniProt P14416); assay: activity at the dopamine D2 receptor
[2] = test system: major depression with aches and pains; assay: Example 1: patients with major depression and multiple aches and pains; type: in vivo; settings: three patients, commenced 70 mg twice daily, final 140mg to 280mg daily
Description: Three patients who fulfilled criteria for major depression present with multiple aches and pains for which there is no obvious physical cause. […] The final dose of medication ranges from 140mg daily to 280mg daily.

severe neuropathic pain = assay: Example 2: diabetic clinic patients with severe neuropathic pain; type: in vivo
Description: Four patients at a diabetic clinic present with severe neuropathic pain. Conventional analgesics are of no benefit.

serotonin synthesis = serotonin synthesis in the brain; settings: in vivo
sedation = settings: in vivo
neuropathic pain = settings: in vivo; cited from earlier work

Chain of D2 receptor (P14416 whole entry): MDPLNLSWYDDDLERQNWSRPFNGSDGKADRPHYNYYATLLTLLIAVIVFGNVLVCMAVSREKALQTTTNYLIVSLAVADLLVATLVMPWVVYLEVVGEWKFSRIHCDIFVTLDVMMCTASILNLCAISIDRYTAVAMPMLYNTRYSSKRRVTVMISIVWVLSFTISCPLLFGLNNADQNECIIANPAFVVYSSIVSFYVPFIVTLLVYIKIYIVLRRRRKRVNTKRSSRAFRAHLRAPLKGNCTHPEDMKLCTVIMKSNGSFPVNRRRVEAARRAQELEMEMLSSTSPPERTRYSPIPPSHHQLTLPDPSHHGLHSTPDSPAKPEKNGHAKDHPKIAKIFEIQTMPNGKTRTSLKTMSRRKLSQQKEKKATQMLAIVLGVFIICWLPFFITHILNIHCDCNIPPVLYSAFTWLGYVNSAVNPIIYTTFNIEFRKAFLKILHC

SMILES: COc1ccc(C(CN(C)C)C2(O)CCCCC2)cc1 (centres unmarked) [venlafaxine]
- fatalities per million prescriptions [1]: 13.2 per million prescriptions

SMILES: CN(C)CCCN1c2ccccc2CCc2ccccc21 [imipramine]
- prolongation of the ECG interval (ECG interval): prolong the ECG interval

SMILES: CN(CCCN1c2ccccc2CCc2ccccc21)CC(=O)c1ccc(Cl)cc1 [lofepramine]
- NA:5HT ratio relative to desipramine (NA and 5HT reuptake): about four times that of desipramine
- NE: 5-HT ratio relative to milnacipran (NA and 5HT reuptake): higher than that of milnacipran
- activity at the D2 receptor (D2 receptor): potent activity
- improvement in symptoms including pain [2]: All three show improvement in all symptoms including pain within four weeks
- relief of neuropathic pain (severe neuropathic pain; four diabetic patients, 70 mg tds, after failure of analgesics and duloxetine): dramatic relief of pain in 3 of the 4 cases
- response after escalation of the dose (severe neuropathic pain; patient 4, escalated dose): results in improvement
- effect on serotonin synthesis in the brain (serotonin synthesis): up-regulate serotonin synthesis in the brain
- induction of sedation (sedation): does not induce sedation
- fatalities per million prescriptions [1]: 1.3 per million prescriptions
- prolongation of the ECG interval (ECG interval): does not

SMILES: CC(NC(C)(C)C)C(=O)c1cccc(Cl)c1 (centres unmarked) [buproprion]
- effectiveness in neuropathic pain (neuropathic pain): has not been found to be effective

SMILES: CNCC[C@H](Oc1cccc2ccccc12)c1cccs1 [duloxetine]
- response of neuropathic pain to prior treatment (severe neuropathic pain; four diabetic patients, prescribed before lofepramine): failed to respond

SMILES: CNCCCN1c2ccccc2CCc2ccccc21 [desipramine]
- fatalities per million prescriptions [1]: 200.9 per million prescriptions
- prolongation of the ECG interval (ECG interval): prolong the ECG interval

SMILES: CN(C)CCC=C1c2ccccc2CCc2ccccc21 [amitriptyline]
- prolongation of the ECG interval (ECG interval): prolong the ECG interval
